Source: patent publication US20220249440A1, “MUSCLE RE[…]” (SATO PHARMACEUTICAL CO., LTD., priority 2019, published 2022)

Key:
5-HT2B receptor = 5-HT2B receptor (Homo sapiens, UniProt P41595); details: cited literature: Br. J. Pharmacol. 128(1):13-20, 1999; J. Pharmacol. Exp. Ther. 347(3):645-59, 2013; cited from earlier work
[1] = tested on: muscle-damaged model animal (CTX administered to tibialis anterior muscle); assay: Muscle regeneration in cardiotoxin (CTX) muscle-damaged model animal; area of regenerated single muscle fibers with central nuclei in tibialis anterior muscle; format: in vivo, C57BL/6 male mice; details: 10 μL intramuscular into tibialis anterior muscle once a day from day before CTX to 6 day after CTX; for increase in the mean muscle fiber area of regenerated muscle as compared with the Vehicle administration group: 7 days after CTX, P<0.0001; for histogram of the regenerated single-muscle fiber area vs Vehicle administration group: muscle collected 7 days after CTX
Procedure: Seven-week old C57BL/6 male mice (CLEA Japan, Inc.) were purchased, and used for experiment at the age of 8 weeks.
A model animal to which muscle damage had been caused by administration of snake venom cardiotoxin (CTX) was used. The muscle-damaged model animal has been widely used in studies on the regeneration from muscle damage.
Under the anesthesia with isoflurane, 50 μL of 10 μM CTX was administered to the tibialis anterior muscle of the right hindlimb of the mouse. After 7 days of the administration of CTX, the tibialis anterior muscle was collected by dissection, and supplied to the preparation of a muscle tissue section.
Immediately after the collection of the tibialis anterior muscle, the tibialis anterior muscle was immersed in isopentane cooled with liquid nitrogen and was rapidly frozen. The frozen muscle tissue was cut into slices each having a thickness of 10 μm by using a cryostat (Leica Biosystems), and the slice was attached onto an antistripping coated slide glass (Matsunami Glass Ind., Ltd).
A muscle tissue section was sufficiently air dried for 30 minutes under room temperature. After that, the muscle tissue section was fixed by immersing it in acetone cooled to −30° C. and treating at −30° C. for 20 minutes. The fixed section was air dried once and washed with PBS. Then the section was blocked by dropwisely adding a blocking reagent (Blocking One, NACALAI TESQUE, INC.) to the section and being subjected to the blocking treatment for 1 hour. Next, a primary antibody (Anti-Laminin-2 (α-2 Chain) antibody, Rat monoclonal (Sigma-Aldrich)) obtained by being diluted 500 times with the blocking reagent was added dropwise, and the reaction was conducted at overnight at 4° C. Since laminin to which a primary antibody binds is a protein expressed in all muscle cells, the primary antibody was used in this experiment in order to measure the area of individual muscle cells in a section. The muscle tissue section after the reaction with the primary antibody was washed with PBS, and then was reacted for 1 hour with a secondary antibody (CF 488A Goat Anti-Rat IgG (H+L) (Biotium)) obtained by being diluted 500 times with the blocking reagent. The secondary antibody that is an anti-rat antibody conjugated with a fluorescent dye binds to the primary antibody, and stains the laminin. The muscle tissue section after the reaction with the secondary antibody was washed with PBS, and sealed by using “[…] Hard⋅Set with DAPI” (Vector), and then the fluorescence observation was performed with an inverted microscope FSX100 (OLYMPUS). The “[…] Hard⋅Set with DAPI” was used for staining the central nucleus of muscle cells.
The muscle regeneration was evaluated on the basis of the image data taken from the fluorescence observation. In this experiment, muscle cells each having a central nucleus (single muscle fibers having central nuclei) were used as an indicator for regenerated muscle. After the image data was taken into image analysis software ImageJ (NIH), a muscle cell having a central nucleus was extracted. The cross-sectional area of the extracted individual cells was measured on the basis of the cell membrane stained with laminin. For the area measurement, “Analyze Particles” that is an add-in analysis program on ImageJ was used. The measurement results were shown as a distribution chart (histogram) of the area and number of regenerated single-muscle fibers, and as an average value of the cross-sectional areas of all the regenerated single muscle fibers (mean muscle fiber area).

[2] = 5 mM in PBS with 5% dimethyl sulfoxide

Chain of 5-HT2B receptor (P41595 whole entry): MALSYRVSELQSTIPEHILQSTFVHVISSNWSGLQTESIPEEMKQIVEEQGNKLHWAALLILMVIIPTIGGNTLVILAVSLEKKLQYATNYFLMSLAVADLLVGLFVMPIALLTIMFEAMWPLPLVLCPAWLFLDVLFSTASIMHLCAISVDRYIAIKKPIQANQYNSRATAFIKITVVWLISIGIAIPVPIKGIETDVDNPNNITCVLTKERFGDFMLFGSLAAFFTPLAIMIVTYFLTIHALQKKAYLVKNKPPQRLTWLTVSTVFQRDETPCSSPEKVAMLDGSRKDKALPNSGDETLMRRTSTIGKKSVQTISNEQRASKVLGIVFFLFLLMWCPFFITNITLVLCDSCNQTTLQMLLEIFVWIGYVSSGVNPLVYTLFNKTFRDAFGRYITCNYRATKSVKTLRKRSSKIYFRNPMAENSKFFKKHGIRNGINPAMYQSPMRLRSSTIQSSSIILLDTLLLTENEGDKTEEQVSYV

SMILES	5-HT2B receptor agonist activity (known from literature) (5-HT2B receptor)	increase in the mean muscle fiber area of regenerated muscle as compared with the Vehicle administration group [1, 2] [%]	histogram of the regenerated single-muscle fiber area vs Vehicle administration group [1, 2]	increase in the mean muscle fiber area of regenerated muscle as compared with the Vehicle administration group ([1]; 10 mM in PBS) [%]	histogram of the regenerated single-muscle fiber area vs Vehicle administration group ([1]; 10 mM in PBS)
CC(N)Cc1c[nH]c2ccc(O)cc12 (stereo not drawn) [α-methyl-5-HT, 3-(2-aminopropyl)-1H-indol-5-ol]	5-HT2B receptor agonist	23	shifted to the right side	–	–
Cn1c2c(c3ccccc31)CCNCC2 [PNU 22394, 6-methyl-1,2,3,4,5,6-hexahydroazepino[4,5-b]indole]	5-HT2B receptor agonist	–	–	8.5	shifted to the right side
CC(N)Cc1c[nH]c2ccc(OCc3cccs3)cc12 (stereo not drawn) [BW723C86, 1-(5-(thiophen-2-ylmethoxy)-1H-indol-3-yl)propan-2-amine]	selective 5-HT2B receptor agonist	9.5	shifted to the right side	–	–
